From ChEMBL document CHEMBL1136187, “Quaternary ammonium 3-(aminoethoxy)pyridines as antinociceptive agents” (Bioorg Med Chem Lett, 2003)

What was measured:
Mus musculus [1] = assay: Antinociceptive response as maximal possible effect upon subcutaneous administration in mice at the dose of 10 mg/kg; assay type: functional
Mus musculus [2] = assay: Antinociceptive response as maximal possible effect upon intrathecal administration in mouse at the dose of 15 mg/kg; assay type: functional
[3] = molecular target: Neuronal acetylcholine receptor; assay: Binding affinity towards nicotinic acetylcholine receptor (nACh) using [3H](-)-nicotine as radioligand in rat brain; assay type: tissue-based
Mus musculus [4] = assay: Antinociceptive response as maximal possible effect upon subcutaneous administration in mice at the dose of 15 mg/kg; assay type: functional
Mus musculus [5] = assay: Antinociceptive response as maximal possible effect upon intrathecal administration in mouse at the dose of 20 mg/kg; assay type: functional
Mus musculus [6] = assay: Antinociceptive response as maximal possible effect upon subcutaneous administration in mice at the dose of 20 mg/kg; assay type: functional
Mus musculus [7] = assay: Antinociceptive effect upon intrathecal administration in mouse using tail-flick assay; 10-19; assay type: functional
Mus musculus [8] = assay: Antinociceptive effect upon subcutaneous administration in mice using tail-flick assay; 12-18; assay type: functional; conditions: sc
Mus musculus [9] = organism: Mus musculus; assay: animal or person; conditions: Tail, sc
Mus musculus [10] = assay: Antinociceptive response as maximal possible effect upon intrathecal administration in mouse at the dose of 25 mg/kg; assay type: functional
Mus musculus [11] = assay: Antinociceptive effect upon subcutaneous administration in mice using tail-flick assay; 0.9-2.2; assay type: functional; conditions: sc
Mus musculus [12] = assay: Antinociceptive effect upon intrathecal administration in mouse using tail-flick assay; 16-23; assay type: functional

Molecule `C[N+](C)(C)CCOc1ccc(Cl)nc1.[I-]` has an MPE (Mus musculus [1]) of 5%, an MPE (Mus musculus [2]) of 4% and a Ki [3] of 1.3 nM.
Molecule `CC(C)[N+](C)(C)CCOc1cccnc1.[Cl-]` has an MPE (Mus musculus [4]) of 3%, an MPE (Mus musculus [5]) of 2% and a Ki [3] of 13.8 nM.
In the case of `CC[N+](C)(C)CCOc1cccnc1.[Cl-]`, the MPE (Mus musculus [6]) is reported as 5%, the ED50 (Mus musculus [7]) is reported as 14 ug mouse-1 and the Ki [3] is reported as 2.2 nM.
`CN(C)CCOc1cccnc1.O=C(O)C(=O)O` gave an ED50 (Mus musculus [8]) of 15 mg/kg.
Work on `CN1CCC[C@H]1c1cccnc1` [NICOTINE] yielded an ED50 (Mus musculus [9]) of 1.5 mg/kg.
In the case of `CC[N+](C)(C)CCOc1ccc(Br)nc1.[I-]`, the MPE (Mus musculus [1]) is reported as 0%, the Ki [3] is reported as 5 nM and the MPE (Mus musculus [10]) is reported as 0%.
`C[N+](C)(C)CCOc1cccnc1.[Cl-]` showed an ED50 (Mus musculus [11]) of 1.4 mg/kg, an ED50 (Mus musculus [12]) of 19 ug mouse-1 and a Ki [3] of 0.5 nM.
For `COc1ccc(OCC[N+](C)(C)C)cn1`, the Ki [3] was 37 nM.
For `CCC[N+](C)(C)CCOc1cccnc1.[Cl-]`, the MPE (Mus musculus [4]) was 1%, the MPE (Mus musculus [5]) was 3% and the Ki [3] was 29.2 nM.
